The target of test [1] is T1, FKBP12 (Homo sapiens (Human), UniProt P62942). As to the kind of experiment: AlphaLISA FKBP12 binding: inhibition of binding of biotinylated FK506 to FLAG tagged FKBP12. The following applies: read-out: Binding affinity to FKBP12 (by displacement of FK506). The source says: The binding of compounds of the invention to FKBP12 can be determined using the following protocol.
This protocol utilizes Perkin Elmers AlphaLISA technology platform to detect FKBP binders by measuring the inhibition of binding of biotinylated FK506 to FLAG tagged FKBP12.
10×TBST Buffer (Boston BioProducts IBB-181), Biotinylated FK506 (in-house), FLAG tagged FKBP (in-house); anti-FLAG Donor beads (Perkin Elmer AS103) and Streptavidin Acceptor beads (Perkin Elmer AL125); Compounds in DMSO (in-house), FK506.
Experimental Protocol/Description of Assay: Add 20 uL of 12.5 nM FKBP-FLAG working stock to each well of the 96-well plate. Add 1 uL of test compound (100% DMSO) to each well of the plate using the Janus MTD head and P20 tips (except control wells). Add 1 uL of DMSO to negative control wells and 1 uL of 50 uM FK506 solution to positive control wells. In the dark, add 20 uL of combined Donor/Acceptor beads to each well. Incubate in the dark for 30 minutes at room temperature. In the dark, add 10 uL of 5 nM biotinylated FK506 working stock to each well. Incubate in the dark for 60 minutes at room temperature. Protect plate from light until reading on Biotek Synergy2 Plate Reader; Alphalisa 96-well protocol (680 excitation/615 emission).
In general terms: In Alpha technology, singlet oxygen from a donor bead excites a nearby acceptor bead.

For test [2], the target named is T1, FKBP12. Nature of the test: SPR binding of compound (analyte) to immobilized FKBP12 (Example 7). The note with it: 25° C., 12×HIS tagged FKBP12 immobilized on NTA chip; read-out: SPR affinity to FKBP12: KD. The method, then:
This protocol utilizes Surface Plasmon Resonance (SPR) as a method to determine kinetics (KD, Ka, Kd) for the binding of compound (analyte) to immobilized FKBP12 (ligand).
Compound in 100% DMSO (in-house), 10×HBS-P+ buffer (GE Healthcare BR-1006-71), Assay buffer (1×HBS-P+ buffer, 1% DMSO), 12×HIS tagged FKBP12 (in-house).
(§1) Experiments are performed at 25° C. Stock solution of 12×HIS tagged FKBP12 is diluted to 100 nM in assay buffer (1% DMSO final). Approximately 500-600 RU of FKBP12 is immobilized on one of two flow cells of an activated NTA chip. The second flow cell is not activated as a reference for non-specific interaction of the analyte to the sensor chip. Various concentrations of compound (1 nM-1 μM range), serially diluted into the same assay buffer (1% DMSO final), are injected onto the FKBP12 surface and reference surface at a flow rate of 10 μl/min. The surface is regenerated between analyte injections with 350 mM EDTA.
(§2) The BiaEvaluation software program is used for data fitting. All data is reference subtracted against both the reference flow cell and a buffer injection. For kinetic analyses, data is locally fit to a 1:1 interaction model.

In test [3] the target is T2, CEP25011.4 (residues 2134-2231) (Homo sapiens (Human), UniProt P62942+Q9BV73). As to the kind of experiment: SPR binding of CEP250 (analyte) to immobilized FKBP12-Compound 2 binary complex. The following applies: FKBP12/Compound 2 complex binding to CEP25011.4, SPR, 1 μM compound. The method, then: (§3) This protocol utilizes Surface Plasmon Resonance (SPR) as a method to determine kinetics (KD, Ka, Kd) for the binding of CEP250 (analyte) to immobilized FKBP12-Compound 2 binary complex (ligand).
T2 sequence (Q9BV73 2134-2231): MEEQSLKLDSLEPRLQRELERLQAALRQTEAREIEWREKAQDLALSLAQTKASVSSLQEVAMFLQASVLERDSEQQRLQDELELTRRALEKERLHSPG
T2 sequence (P62942 whole entry, the tested form may be a part): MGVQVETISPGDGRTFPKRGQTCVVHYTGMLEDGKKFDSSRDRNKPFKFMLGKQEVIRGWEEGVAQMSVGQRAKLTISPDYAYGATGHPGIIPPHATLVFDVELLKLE
(§4) Compound 2 in 100% DMSO (in-house), 10×HBS-P+ buffer (GE Healthcare BR-1006-71), Assay buffer (1×HBS-P+ buffer, 1% DMSO, 1 μM Compound 2), 12×HIS tagged FKBP12 (in-house), CEP25029.2 (residues 1982-2231) and CEP25011.4 (residues 2134-2231) (in-house).
as §1, with “buffer containing 1 μM Compound 2” for “buffer”, “200-400” for “500-600”, “CEP250” for “compound”
as §2
(SPR reads the build-up and loss of mass on a sensor chip optically.)

Test [4] has as its target CEP25029.2 (residues 1982-2231) (Homo sapiens (Human), UniProt P62942+Q9BV73). The description is as above. The following applies: FKBP12/Compound 2 complex binding to CEP25029.2, SPR, 1 μM compound. The method, then:
as §3, §4
as §1, with “buffer containing 1 μM Compound 2” for “buffer”, “200-400” for “500-600”, “CEP250” for “compound”
as §2

The target in test [5] is T2, CEP25011.4 (residues 2134-2231). As to the kind of experiment: ITC binding of FKBP12-compound binary complex to CEP250. On the procedure:
(§5) This protocol utilizes Isothermal Titration Calorimetry (ITC) to directly measure the heat change associated with binding of FKBP12-Compound 2 and FKBP12-Compound 6 binary complexes to CEP250. Measurement of the heat change allows accurate determination of association constants (Ka), reaction stoichiometry (N), and the change in binding enthalpy (ΔH).
(§6) Compound 2 and Compound 6 in 100% DMSO (in-house), Protein Buffer (10 mM HEPES, pH 7.5, 75 mM NaCl, 0.5 mM TCEP), assay buffer (protein buffer+1% DMSO), FKBP12 (in-house), CEP25029.4 (residues 1982-2231) and CEP25011.4 (residues 2134-2231) (in-house).
(§7) MicroCal™ ITC200 (GE Healthcare) Experimental Protocol: FKBP12 stock solution was diluted to 10 μM in assay buffer (1% DMSO final). Compound was added to FKBP12 to 20 μM (1% DMSO final), and binary complex was filled into the reaction cell of the ITC device after 5-10 min pre-incubation time. CEP250 protein stocks were diluted to 50 μM in assay buffer and supplemented with 20 μM compound (1% DMSO final) before being filled into the injection syringe. A control experiment in the absence of compound was also run to determine the heat associated with operational artifacts and the dilution of titrant as it was injected from the syringe into the reaction cell.

For test [6], the target named is CEP25029.4 (residues 1982-2231) (Homo sapiens (Human), UniProt P62942+Q9BV73). Described as above. On the procedure: as §5, §6, §7
Chain of CEP25029.4 (residues 1982-2231) (Q9BV73 1982-2231): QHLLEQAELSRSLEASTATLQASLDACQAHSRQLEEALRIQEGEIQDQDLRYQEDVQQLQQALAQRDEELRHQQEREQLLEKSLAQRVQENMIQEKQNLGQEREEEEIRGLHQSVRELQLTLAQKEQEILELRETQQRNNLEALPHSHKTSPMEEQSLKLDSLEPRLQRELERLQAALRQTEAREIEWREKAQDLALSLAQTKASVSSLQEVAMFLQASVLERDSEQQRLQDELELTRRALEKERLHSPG
Chain of CEP25029.4 (residues 1982-2231) (P62942 whole entry, the tested form may be a part): as the sequence (P62942 whole entry, the tested form may be a part) above

For orientation: koff means the rate constant with which the complex falls apart. Higher therefore signals a short-lived complex.

Chain of CEP25029.2 (residues 1982-2231) (Q9BV73 1982-2231): as the sequence (Q9BV73 1982-2231) above
Chain of CEP25029.2 (residues 1982-2231) (P62942 whole entry, the tested form may be a part): as the sequence (P62942 whole entry, the tested form may be a part) above
T1 sequence (P62942 whole entry): as the sequence (P62942 whole entry, the tested form may be a part) above

Take `CC[C@H](Cc1ccccc1)[C@@H]1/C=C/C/C=C/C[C@@H](C)[C@H](O)[C@@H](C)[C@@H]2CC[C@@H](C)C(=O)C(O)(O2)C(=O)N2CCCC[C@H]2C(=O)O1` [Compound 2]: at FKBP12 [1], the IC50 was found to be 1.5 nM. In addition, the Kd on FKBP12 [2] is 12.6 nM; in test [3], 0.00309 s⁻¹; in test [5], 70 nM; in test [6], 190 nM. Also, the kon in test [3] (read-out: Ka) was found to be 571000 M⁻¹ s⁻¹; in test [4] (read-out: Ka) it was 311000 M⁻¹ s⁻¹. In addition, in test [4], the off-rate (koff) is 9.25e-05 s⁻¹. The ΔH in test [5] (ITC, FKBP12 10 μM in cell, CEP25011.4 68 μM in syringe, ligand 20 μM, 298 K) is -11.8 kcal/mol; in test [6] (ITC, FKBP12 10 μM in cell, CEP25029.4 118 μM in syringe, ligand 20 μM, 298 K) it was -12.48 kcal/mol. In addition, the ΔG was -9.739 kcal/mol in test [5] (ITC, FKBP12 10 μM, CEP25011.4 68 μM, ligand 20 μM, 298 K, ΔG = −RT ln Ka) and -9.18 kcal/mol in test [6] (ITC, FKBP12 10 μM, CEP25029.4 118 μM, ligand 20 μM, 298 K, ΔG = −RT ln Ka). In addition, the “−T*ΔS” value was 2.06 kcal/mol in test [5] (ITC, FKBP12 10 μM, CEP25011.4 68 μM, ligand 20 μM, 298 K, −TΔS = ΔG − ΔH) and 3.298 kcal/mol in test [6] (ITC, FKBP12 10 μM, CEP25029.4 118 μM, ligand 20 μM, 298 K, −TΔS = ΔG − ΔH).

These data come from patent US11059830B2, “Compounds that participate in cooperative binding and uses thereof” (Revolution Medicines, Inc., priority 2015, dated 2021).
